Results reported in patent publication EP1038532A1, “IMMUNOMODULATOR AND PHARMACEUTICAL COMPOSITIONS WITH ANTITUMOR PROPERTIES, AND A FOOD ADDITIVE” (Kaljuzhin, Oleg Vitallievich, priority 1997, dated 1998).

Experiments:
[1] = Distribution of 14C-labelled preparations in the water/chloroform model membrane; format: physicochemical
From the text: Marked differences in distribution of 14C-labelled preparations in the phases of this model "membrane" have been found. 64% of C7H15MDP was included in the water phase, and 36% of the preparation in the organic phase. At the same time, the water phase included only 28% of its lipophilic homologue, and the organic phase 72%.

[2] = system: human erythroleukemia K562 cells
[3] = system: TNF; assay: TNF production by peritoneal macrophages, read out by lysis of L929 cells; format: cell-based, C57BL/6 mouse; details: control 7±6
From the text: (§1) Each value in the table is the mean ± S.D. of three independent experiments.

[4] = system: lymphocytes in a mixed lymphocyte culture (MLC); assay: Proliferation of lymphocytes in a mixed lymphocyte culture (MLC); format: cell-based; details: mean ± S.D. of six experiments, control 11.9±0.9
From the text: Each value in the table is the mean index of proliferation stimulation of lymphocytes in MLC ± S.D. of six independent experiments.

[5] = cholesterol/phosphatidylcholine model lipid membrane
[6] = system: mouse splenocytes; assay: LPS-induced proliferation of mouse splenocytes; format: cell-based; details: LPS stimulation 1 µg/ml, mean ± S.D. of three experiments, control 3.4±0.2
Description: Each value in the table is the index of proliferation of lymphocytes in response to stimulation of 1 µg/ml under the influence of MDP derivatives (arithmetical mean ± S.D. of three independent experiments).

[7] = system: IL-1; assay: IL-1 production by peritoneal macrophages, read out by thymocyte proliferation; format: cell-based, C57BL/6 mouse; details: control 1.3±0.4
From the text: as §1

[8] = system: lymphoma EL-4 or melanoma B16; assay: Further antitumor trials in tumor-bearing mice (tumor type not specified); format: in vivo, C57BL/6 mice; details: treatment begun 1 week before tumor implantation
Description: Experimental procedures. Briefly, suspension of lymphoma EL-4 or melanoma B16 cells (10^6 cells) was injected subcutaneously into the footpad of C57BL/6 mice. […] Solution of the preparation in phosphate buffer saline (PBS) was administered i.v. or p.o. Single dosage for p.o. administration was of 1 mg/kg in weight, and of 0.5 mg/kg in weight when administered i.v. […] Besides, some tumor-bearing mice were treated with the preparation encapsulated in liposomes consisting of phosphatidylcholine:phosphatudylserine mixture (7:3).
(§2) Liposomal C7H15MDP in dose of 0.25 mg/kg was administered i.v. by the same schedule that was used with unencapsulated preparation.
However, all methods of administration (p.o., i.v., liposomal i.v.) seem to be rational. Exact administration method is to be defined individually taking into account localization and type of tumor and other factors.

[9] = system: melanoma B16; assay: Antitumor activity in the mouse melanoma B16 model; format: in vivo, C57BL/6 mice; details: for Inhibition of tumor growth: day 21
Description: (§3) Experimental procedures. Briefly, suspension of lymphoma EL-4 or melanoma B16 cells (10^6 cells) was injected subcutaneously into the footpad of C57BL/6 mice. Then mice underwent course of C7H15MDP treatment. Solution of the preparation in phosphate buffer saline (PBS) was administered i.v. or p.o. Single dosage for p.o. administration was of 1 mg/kg in weight, and of 0.5 mg/kg in weight when administered i.v. The preparation was administered twice a week during 3 weeks, beginning immediately after implantation of tumor cells. Besides, some tumor-bearing mice were treated with the preparation encapsulated in liposomes consisting of phosphatidylcholine:phosphatudylserine mixture (7:3).
as §2
(§4) Control mice were treated with PBS without active compound.
(§5) Antitumor effect was estimated using the following criteria: (1) prolongation of life-span, (2) inhibition of tumor growth.

[10] = system: lymphoma EL-4; assay: Antitumor activity in the mouse lymphoma EL-4 model; format: in vivo, C57BL/6 mice; details: for Inhibition of tumor growth: day 21
Description: as §3, §2, §4, §5

[11] = i.v., 0.5 mg/kg twice a week during 3 weeks
[12] = p.o., 1 mg/kg twice a week during 3 weeks

share of preparation included in the organic phase [1] | share of preparation included in the water phase [1] | time at which the preparation appeared in the second water phase [5] | SMILES | Cytosis of L929 cells by samples of TNF ([3]; 5 µM) | Cytosis of L929 cells by samples of TNF ([3]; 10 µM) | Cytosis of L929 cells by samples of TNF ([3]; 20 µM) | mean index of proliferation stimulation of lymphocytes in MLC ([4]; 5 µM) | mean index of proliferation stimulation of lymphocytes in MLC ([4]; 10 µM) | mean index of proliferation stimulation of lymphocytes in MLC ([4]; 20 µM) | index of proliferation of lymphocytes ([6]; 5 µM) | index of proliferation of lymphocytes ([6]; 10 µM) | index of proliferation of lymphocytes ([6]; 20 µM) | Proliferation of tymocytes cultured with samples of IL-1 (index of proliferation) ([7]; 5 µM) | Proliferation of tymocytes cultured with samples of IL-1 (index of proliferation) ([7]; 10 µM) | Proliferation of tymocytes cultured with samples of IL-1 (index of proliferation) ([7]; 20 µM) | also measured
72% | 28% | 1 h | CCCCCCCCCCCCCCCCO[C@@H]1O[C@H](CO)[C@@H](O)[C@H](O[C@H](C)C(=O)N[C@@H](C)C(=O)N[C@H](CCC(=O)O)C(N)=O)[C@H]1NC(C)=O [C16H33MDP, β-hexadecylglycoside-MDP] | 36±15% | 40±16% | 47±10% | 9.5±1.2 | 7.7±0.4 | 5.9±0.8 | 3.0±0.1 | 2.6±0.3 | 3.0±1.0 | 3.8±0.1 | 3.9±0.4 | 3.9±0.1 | binding to the cells, more intensive than amphiphilic homologue [2]: 50%; time at which cell-associated radioactivity entered the plateau stage [2]: 2 h; time at which concentration in the second water phase became significant [5]: 6 h
36% | 64% | 24 h | CCCCCCCO[C@@H]1O[C@H](CO)[C@@H](O)[C@H](O[C@H](C)C(=O)N[C@@H](C)C(=O)N[C@H](CCC(=O)O)C(N)=O)[C@H]1NC(C)=O [C7H15MDP, β-heptylglycoside-MDP] | 41±2% | 57±8% | 62±5% | 14.5±0.9 | 16.4±0.6 | 15.9±1.4 | 4.4±0.3 | 4.6±0.3 | 4.4±0.3 | 3.8±0.2 | 3.9±0.2 | 4.8±0.2 | tumor regression [8]: complete regression of tumor was observed in several cases; time to reach a state of equilibrium between concentrations in water phases from both sides of the model membrane ([5]; first to reach equilibrium): 72 h; Prolongation of life-span [9, 11]: 101%; Mean life-span ([9]; i.v., 0.5 mg/kg twice a week during 3 weeks, control (PBS i.v.) 36±3): 74 ± 9 days; Tumor node volume at the day 21 after tumor inoculation ([9]; i.v., 0.5 mg/kg, control (PBS i.v.) 736±51): 494±49 mm^3; Inhibition of tumor growth ([9]; i.v., 0.5 mg/kg): 33%; Prolongation of life-span [9, 12]: 70%; Mean life-span ([9]; p.o., 1 mg/kg twice a week during 3 weeks, control (PBS p.o.) 30±4): 51 ± 5 days; Tumor node volume at the day 21 after tumor inoculation ([9]; p.o., 1 mg/kg, control (PBS p.o.) 765±69): 571±65 mm^3; Inhibition of tumor growth ([9]; p.o., 1 mg/kg): 25%; Prolongation of life-span [10, 11]: 62%; Mean life-span ([10]; i.v., 0.5 mg/kg twice a week during 3 weeks, control (PBS i.v.) 39±4): 63 ± 5 days; Tumor node volume at the day 21 after tumor inoculation ([10]; i.v., 0.5 mg/kg, control (PBS i.v.) 789±64): 463±52 mm^3; Inhibition of tumor growth ([10]; i.v., 0.5 mg/kg): 41%; Prolongation of life-span [10, 12]: 19%; Mean life-span ([10]; p.o., 1 mg/kg twice a week during 3 weeks, control (PBS p.o.) 42±6): 50 ± 7 days; Tumor node volume at the day 21 after tumor inoculation ([10]; p.o., 1 mg/kg, control (PBS p.o.) 842±78): 650±73 mm^3; Inhibition of tumor growth ([10]; p.o., 1 mg/kg): 23%
